Measurements from US9885060B2, “Alkene production” (Evonik Degussa GmbH, priority 2015, dated 2018).

What was measured:
Type in all cases: biochemical
OleT [1] = assay: Decarboxylation of FAs C22 to C4 employing the FDH-CamAB-OleT redox-cascade; settings: for Conversion / α-Olefin / Selectivity α-OH / Selectivity α-Olefin / Selectivity β-OH / Selectivity n-Alkanone: 10 mM substrate
Description: (§1) Enzymatic reactions (1 mL scale) were quenched by addition of 100 μL 5 N Extraction of substrate and products was performed with 500 μL EtOAc containing 0.1% 1-decanol as internal standard. The organic phase was dried over anhydrous Na2SO4. Derivatization of carboxylic acids (fatty acids and hydroxy acids) to the corresponding methyl esters was achieved by mixing the organic phase with MeOH (2.5:1.5 v/v) followed by supplementation of 5 to 15 μL of 2 M TMSCHN2 (trimethylsilyldiazomethane in diethyl ether). The mixture was incubated for 30 min, 25° C. and 750 rpm before injection into GC-FID or GC-MS, Extraction and derivatization of products and substrates from conversion of short chain FAs ([…]) was performed using the same protocol but all steps were performed on ice to prevent undesired loss of volatile products.
(§2) Products from FA substrates with chain lengths ranging from C22 to C10 were separated on a HP5 column (Programm) and detected by GC-FID or GC-MS. Extracted products from conversion of nonanoic acid (I-octene as product) were separated on a DB1702 column (Programm) and detected by GC-FID. Authentic standards of substrates and terminal olefins were treated as described above and were used as references for identification and preparation of calibration curves. Detection of volatile short chain terminal olefins (1-butene/1-propene [ongoing] to 1-heptene) was accomplished by manual injection from vial headspaces into GC-MS, in order to prevent loss of products, the vials containing the reaction mixtures were sealed with a PTFE septum. After conversion the closed vial was heated for 10 min at 80° C., together with a 10 ml syringe (TYPE). From the headspace 2 to 9 μl volumes were injected splitless into a GC-MS chromatograph and analytes were separated on a HP5 column (Programm). Calibration curves for 1-pentene, 1-hexene and 1-heptene were prepared in the same way at 4° C. and using 5% DMF as cosolvent.
The substrate scope of OleT was further investigated by varying the FA chain length from C3 to C22. […] For the first time, short EAs could be decarboxylated to the corresponding olefins, covering the whole spectrum from C11 down to C4. […] Due to the high volatility of short chain olefins, product work up was done at 4° C. […] (2.53 mM product from 5 mM lauric acid). Head-space analysis by GC-MS from reactions with short chain FAs (C8-C5) confirmed the formation of the respective α-olefins, allowing the first biotechnological access to 1-heptene, 1-hexene and 1-pentene and 1-butene with OleT.
Conversion of heptanoic acid was carried out as described in Example 4 using the OleTCamAB-FDH reaction cascade.
Calibration curves for 1-hexene were prepared accordingly ranging from 0.05 to 2 mM. Due to a strong overlap of […] with the peak areas of CO2 and EtOH (FIG. 1, peaks a, b and c) the ion extraction mode of the GC-MS to generate reliable calibration curves was used. Neither CO2 nor EtOH interfered with the product peak area. This can be seen comparing FIGS. 1 and 5 which allow reliable and linear quantification of 1-hexene (FIG. 6) using manual headspace GC-MS injection.
Manual headspace injection into GC-MS was successfully performed for all substrates with chain lengths of C11 to C6. Conversion of 10 mM heptanoic acid allowed reliable formation of up to 1.3 mM 1-hexene without further optimization of the reaction conditions.

OleT [2] = assay: Decarboxylation of stearic and palmitic acid by OleT using O2/CamAB or H2O2 as oxidant; settings: 1 μM OleT, 1 mM substrate
OleT [3] = assay: Decarboxylation of stearic acid by OleT with CamAB redox cascade and NAD(P)H regeneration system (GDH, PDH, FDH)
Description: as §1, §2
After 24 h reaction time, product concentrations of 1.16 mM (0.27 g L-1) 1-heptadecene and 1 mM (0.21 g L-1) 1-pentadecene were obtained but could not be further enhanced. […] Compared to a previously published whole cell reaction system, this FDH-driven system allows 6 times higher product titer and a 21 times higher volumetric productivity with 42.5 mg L-1 h-1 of α-olefin after 8 h reaction time vs: 98 mg L-1 in 48 h) (Table 2).

[4] = 200 μM NADPH + O2, CamAB, 60 min
[5] = 1 mM H2O2, 150 min, no CamAB, strong precipitation observed
[6] = 1 mM NADPH + O2, CamAB, 150 min
[7] = FDH-based regeneration, 5 mM stearic acid
[8] = Formate [8 h], FDH-CamAB, purified OleT 3 μM, 5 mM stearic acid
[9] = Formate, FDH-(Fdr/Fdx) without CamAB, cell free lysate OleT 3 μM, 5 mM stearic acid, 24 h
[10] = Formate, FDH-CamAB, purified OleT 1.5 μM, 5 mM stearic acid, 24 h
[11] = Formate, FDH-CamAB-Fdr/Fdx, cell free lysate OleT 3 μM, 5 mM stearic acid, 24 h
[12] = Glucose, GDH-CamAB, purified OleT 1.5 μM, 5 mM stearic acid, 24 h
[13] = PDH-based regeneration, 5 mM stearic acid
[14] = Phosphite, PDH-CamAB, purified OleT 1.5 μM, 5 mM stearic acid, 24 h

CCCCCCCCC(=O)O [C9, nonanoic acid]
Conversion (OleT [1]; 4 °C, 72 h): 13%
α-Olefin (OleT [1]; 4 °C, 72 h): 1347 µM
Conversion (OleT [1]; 25 °C, 24 h): 18%
Selectivity α-OH (OleT [1]; 25 °C, 24 h): 17 % GC-area
Selectivity α-Olefin (OleT [1]; 25 °C, 24 h): 53 % GC-area
Selectivity β-OH (OleT [1]; 25 °C, 24 h): 30 % GC-area
α-Olefin (OleT [1]; 25 °C, 24 h): 1829 µM

CCCCCCCCCC(=O)O [C10, capric acid/decanoic acid]
Conversion (OleT [1]; 4 °C, 72 h): 0.7%
Selectivity α-Olefin (OleT [1]; 4 °C, 72 h): >99 % GC-area
α-Olefin (OleT [1]; 4 °C, 72 h): 71 µM
Conversion (OleT [1]; 25 °C, 24 h): 0.4%
Selectivity α-Olefin (OleT [1]; 25 °C, 24 h): >99 % GC-area
Selectivity β-OH (OleT [1]; 25 °C, 24 h): Traces
α-Olefin (OleT [1]; 25 °C, 24 h): 44 µM

CCCCCCCCCCCC(=O)O [C12, lauric acid]
product concentration (OleT [1]; 4° C., 5 mM lauric acid): 2.53 mM
Conversion (OleT [1]; 4 °C, 72 h): 33%
Selectivity α-Olefin (OleT [1]; 4 °C, 72 h): 73 % GC-area
Selectivity β-OH (OleT [1]; 4 °C, 72 h): 30 % GC-area
α-Olefin (OleT [1]; 4 °C, 72 h): 3260 µM
Conversion (OleT [1]; 25 °C, 24 h): 3%
α-Olefin (OleT [1]; 25 °C, 24 h): 273 µM

CCCCCCCCCCCCCCCC(=O)O [Palmitic Acid, palmitic acid]
Coupling (OleT [2]; 200 μM H2O2, 60 min, no CamAB): 33%
TOF (OleT [2]; 200 μM H2O2, 60 min, no CamAB): 65 h⁻¹
TON (OleT [2]; 200 μM H2O2, 60 min, no CamAB): 65
α-Olefin (OleT [2]; 200 μM H2O2, 60 min, no CamAB): 65 µM
Coupling (OleT [2]; 200 μM NADH + O2, CamAB, 6 min): 3%
TOF (OleT [2]; 200 μM NADH + O2, CamAB, 6 min): 60 h⁻¹
TON (OleT [2]; 200 μM NADH + O2, CamAB, 6 min): 60
α-Olefin (OleT [2]; 200 μM NADH + O2, CamAB, 6 min): 6 µM
Coupling (OleT [2]; [4]): 10%
TOF (OleT [2]; [4]): 21 h⁻¹
TON (OleT [2]; [4]): 21
α-Olefin (OleT [2]; [4]): 21 µM
Coupling (OleT [2]; [5]): 7%
TOF (OleT [2]; [5]): 29 h⁻¹
TON (OleT [2]; [5]): 29
α-Olefin (OleT [2]; [5]): 73 µM
Coupling (OleT [2]; 1 mM NADH + O2, CamAB, 60 min): 1%
TOF (OleT [2]; 1 mM NADH + O2, CamAB, 60 min): 9 h⁻¹
TON (OleT [2]; 1 mM NADH + O2, CamAB, 60 min): 9
α-Olefin (OleT [2]; 1 mM NADH + O2, CamAB, 60 min): 9 µM
Coupling (OleT [2]; [6]): 3%
TOF (OleT [2]; [6]): 13 h⁻¹
TON (OleT [2]; [6]): 33
α-Olefin (OleT [2]; [6]): 33 µM
Conversion (OleT [1]; 4 °C, 72 h): 21%
Selectivity n-Alkanone (OleT [1]; 4 °C, 72 h): 6 % GC-area
Selectivity α-OH (OleT [1]; 4 °C, 72 h): <1 % GC-area
Selectivity α-Olefin (OleT [1]; 4 °C, 72 h): 80 % GC-area
Selectivity β-OH (OleT [1]; 4 °C, 72 h): 14 % GC-area
α-Olefin (OleT [1]; 4 °C, 72 h): 2059 µM
Conversion (OleT [1]; 25 °C, 24 h): 11%
Selectivity n-Alkanone (OleT [1]; 25 °C, 24 h): 8 % GC-area
Selectivity α-OH (OleT [1]; 25 °C, 24 h): 3 % GC-area
Selectivity α-Olefin (OleT [1]; 25 °C, 24 h): 72 % GC-area
Selectivity β-OH (OleT [1]; 25 °C, 24 h): 23 % GC-area
α-Olefin (OleT [1]; 25 °C, 24 h): 1111 µM

CCCCCCCCCCCCCCCCCC(=O)O [Stearic Acid, stearic acid]
Conversion (OleT [3]; [7]): 62%
TIN (OleT [3]; [7]): 2096
volumetric productivity of α-olefin (OleT [3]; FDH-driven system, after 8 h reaction time): 42.5 mg/L/h
Product (OleT [3]; [8]): 0.34 g/L
TTN (OleT [3]; [8]): 473
α-Olefin (OleT [3]; [8]): 1419 µM
Product (OleT [3]; [9]): 0.1 g/L
TTN (OleT [3]; [9]): 151
α-Olefin (OleT [3]; [9]): 452 ± 52 µM
Product (OleT [3]; [10]): 0.75 g/L
TTN (OleT [3]; [10]): 2096
α-Olefin (OleT [3]; [10]): 3144 ± 121 µM
Product (OleT [3]; [11]): 0.37 g/L
TTN (OleT [3]; [11]): 522
α-Olefin (OleT [3]; [11]): 1565 ± 20 µM
Conversion (OleT [3]; GDH-based system, 1 mM stearic acid): 36%
TIN (OleT [3]; GDH-based system, 10 mM stearic acid): up to 389
Product (OleT [3]; [12]): 0.24 g/L
TTN (OleT [3]; [12]): 680
α-Olefin (OleT [3]; [12]): 1020 ± 63 µM
Conversion (OleT [3]; [13]): 52%
TIN (OleT [3]; [13]): 1739
Product (OleT [3]; [14]): 0.62 g/L
TTN (OleT [3]; [14]): 1739
α-Olefin (OleT [3]; [14]): 2609 ± 256 µM
Coupling (OleT [2]; 200 μM H2O2, 60 min, no CamAB): 85%
TOF (OleT [2]; 200 μM H2O2, 60 min, no CamAB): 170 h⁻¹
TON (OleT [2]; 200 μM H2O2, 60 min, no CamAB): 170
α-Olefin (OleT [2]; 200 μM H2O2, 60 min, no CamAB): 170 ± 7 µM
Coupling (OleT [2]; 200 μM NADH + O2, CamAB, 6 min): 7%
TOF (OleT [2]; 200 μM NADH + O2, CamAB, 6 min): 150 h⁻¹
TON (OleT [2]; 200 μM NADH + O2, CamAB, 6 min): 15
α-Olefin (OleT [2]; 200 μM NADH + O2, CamAB, 6 min): 15 ± 1 µM
Coupling (OleT [2]; [4]): 25%
TOF (OleT [2]; [4]): 53 h⁻¹
TON (OleT [2]; [4]): 53
α-Olefin (OleT [2]; [4]): 53 ± 5 µM
Coupling (OleT [2]; [5]): 5%
TOF (OleT [2]; [5]): 21 h⁻¹
TON (OleT [2]; [5]): 53
α-Olefin (OleT [2]; [5]): 53 ± 15 µM
Coupling (OleT [2]; 1 mM NADH + O2, CamAB, 60 min): 2%
TOF (OleT [2]; 1 mM NADH + O2, CamAB, 60 min): 20 h⁻¹
TON (OleT [2]; 1 mM NADH + O2, CamAB, 60 min): 20
α-Olefin (OleT [2]; 1 mM NADH + O2, CamAB, 60 min): 20 ± 2 µM
Coupling (OleT [2]; [6]): 11%
TOF (OleT [2]; [6]): 47 h⁻¹
TON (OleT [2]; [6]): 118
α-Olefin (OleT [2]; [6]): 118 ± 23 µM
Conversion (OleT [1]; 4 °C, 72 h): 25%
Selectivity n-Alkanone (OleT [1]; 4 °C, 72 h): 5 % GC-area
Selectivity α-OH (OleT [1]; 4 °C, 72 h): <1 % GC-area
Selectivity α-Olefin (OleT [1]; 4 °C, 72 h): 93 % GC-area
Selectivity β-OH (OleT [1]; 4 °C, 72 h): 5 % GC-area
α-Olefin (OleT [1]; 4 °C, 72 h): 2451 µM
Conversion (OleT [1]; 25 °C, 24 h): 39%
Selectivity n-Alkanone (OleT [1]; 25 °C, 24 h): 6 % GC-area
Selectivity α-OH (OleT [1]; 25 °C, 24 h): 2 % GC-area
Selectivity α-Olefin (OleT [1]; 25 °C, 24 h): 86 % GC-area
Selectivity β-OH (OleT [1]; 25 °C, 24 h): 8 % GC-area
α-Olefin (OleT [1]; 25 °C, 24 h): 3886 µM
maximum product concentration (OleT [1]; RT, 5 mM stearic acid): 2.45 mM
